Laboratory results as given in PubChem BioAssay (NCI).
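The compound was tested at five concentrations on cells cultured in 96-well plates, with a 48-hour exposure period. GI50 = concentration required for 50% inhibition of growth. TGI: total growth inhibition.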

Experiments:
Assay in all cases: growth of human tumour cells (NCI), 48 h
NCI/ADR-RES ovarian = test system: NCI/ADR-RES ovarian
OVCAR-4 ovarian = test system: OVCAR-4 ovarian
MALME-3M melanoma = test system: MALME-3M melanoma
SW-620 colon = test system: SW-620 colon
NCI-H460 lung = test system: NCI-H460 lung
SN12C renal = test system: SN12C renal
CAKI-1 renal = test system: CAKI-1 renal
MDA-MB-435 = test system: MDA-MB-435
RXF 393 renal = test system: RXF 393 renal
SNB-75 CNS = test system: SNB-75 CNS
OVCAR-8 ovarian = test system: OVCAR-8 ovarian
NCI-H226 lung = test system: NCI-H226 lung
786-0 renal = test system: 786-0 renal
LOX IMVI melanoma = test system: LOX IMVI melanoma
RPMI-8226 leukemia = test system: RPMI-8226 leukemia
UO-31 renal = test system: UO-31 renal
CCRF-CEM leukemia = test system: CCRF-CEM leukemia
SK-MEL-2 melanoma = test system: SK-MEL-2 melanoma
SK-OV-3 ovarian = test system: SK-OV-3 ovarian
SF-295 CNS = test system: SF-295 CNS
KM12 colon = test system: KM12 colon
EKVX NSCLC = test system: EKVX NSCLC
TK-10 renal = test system: TK-10 renal
UACC-257 melanoma = test system: UACC-257 melanoma
A498 renal = test system: A498 renal
T-47D breast = test system: T-47D breast
NCI-H522 lung = test system: NCI-H522 lung
BT-549 breast = test system: BT-549 breast
U251 CNS = test system: U251 CNS

NC(=O)c1cnc(N[C@@H]2CCCC[C@@H]2N)nc1Nc1cccc(-n2nccn2)c1
GI50 (NCI/ADR-RES ovarian): 14.6 µM
TGI (NCI/ADR-RES ovarian): 30.6 µM
GI50 (OVCAR-4 ovarian): 7.01 µM
TGI (OVCAR-4 ovarian): 19.6 µM
GI50 (MALME-3M melanoma): 3.06 µM
TGI (MALME-3M melanoma): 10.4 µM
GI50 (SW-620 colon): 3.81 µM
TGI (SW-620 colon): 13.4 µM
GI50 (NCI-H460 lung): 3.42 µM
TGI (NCI-H460 lung): 12.6 µM
GI50 (SN12C renal): 4.13 µM
TGI (SN12C renal): 17.6 µM
GI50 (CAKI-1 renal): 2.47 µM
TGI (CAKI-1 renal): 8.09 µM
GI50 (MDA-MB-435): 3.03 µM
TGI (MDA-MB-435): 10.9 µM
GI50 (RXF 393 renal): 2.34 µM
TGI (RXF 393 renal): 8.05 µM
GI50 (SNB-75 CNS): 2.21 µM
TGI (SNB-75 CNS): 12.4 µM
GI50 (OVCAR-8 ovarian): 6.6 µM
TGI (OVCAR-8 ovarian): 20 µM
GI50 (NCI-H226 lung): 4.73 µM
TGI (NCI-H226 lung): 17.8 µM
GI50 (786-0 renal): 5.57 µM
TGI (786-0 renal): 17.6 µM
GI50 (LOX IMVI melanoma): 2.11 µM
TGI (LOX IMVI melanoma): 6.12 µM
GI50 (RPMI-8226 leukemia): 6.7 µM
TGI (RPMI-8226 leukemia): 23 µM
GI50 (UO-31 renal): 3.32 µM
TGI (UO-31 renal): 14.7 µM
GI50 (CCRF-CEM leukemia): 5 µM
TGI (CCRF-CEM leukemia): 19.8 µM
GI50 (SK-MEL-2 melanoma): 3.29 µM
TGI (SK-MEL-2 melanoma): 15.2 µM
GI50 (SK-OV-3 ovarian): 4.14 µM
TGI (SK-OV-3 ovarian): 15.1 µM
GI50 (SF-295 CNS): 13.3 µM
TGI (SF-295 CNS): 26.7 µM
GI50 (KM12 colon): 2.15 µM
TGI (KM12 colon): 10.2 µM
GI50 (EKVX NSCLC): 6.04 µM
TGI (EKVX NSCLC): 18.9 µM
GI50 (TK-10 renal): 5.55 µM
TGI (TK-10 renal): 17.8 µM
GI50 (UACC-257 melanoma): 2.02 µM
TGI (UACC-257 melanoma): 4.49 µM
GI50 (A498 renal): 4.62 µM
TGI (A498 renal): 17.4 µM
GI50 (T-47D breast): 6.44 µM
TGI (T-47D breast): 22.1 µM
GI50 (NCI-H522 lung): 4.14 µM
TGI (NCI-H522 lung): 17.5 µM
GI50 (BT-549 breast): 6.37 µM
TGI (BT-549 breast): 19 µM
GI50 (U251 CNS): 5.87 µM
TGI (U251 CNS): 18.2 µM
